According to patent publication US20250388597A1, “BIFUNCTIONAL PHOTOCROSSLINKING PROBES FOR COVALENT CAPTURE OF PROTEIN-NUCLEIC ACID COMPLEXES IN CELLS” (UNIVERSITY OF SOUTHERN CALIFORNIA, priority 2022, published 2025):

What was measured:
FOXP3 in HEK293T cells = target: T1, FOXP3 in HEK293T cells (Homo sapiens, UniProt Q9BZS1); test: Capture of FLAG-tagged FOXP3 complexes in transfected HEK293T cells, whole cell lysate western blot; format: cell-based; settings: for crosslinked FOXP3 complexes in probe and UV treated cells: SPB-AAD 10 or 100 μM, SPB-PEG4-AAD 100 μM, UV 2-5 min, vs controls lanes 1-3
T1 construct: AVI tag (N); TEV site (N); expressed in transfected cells; host or cells: HEK293T
T1 sequence (Q9BZS1 1-431): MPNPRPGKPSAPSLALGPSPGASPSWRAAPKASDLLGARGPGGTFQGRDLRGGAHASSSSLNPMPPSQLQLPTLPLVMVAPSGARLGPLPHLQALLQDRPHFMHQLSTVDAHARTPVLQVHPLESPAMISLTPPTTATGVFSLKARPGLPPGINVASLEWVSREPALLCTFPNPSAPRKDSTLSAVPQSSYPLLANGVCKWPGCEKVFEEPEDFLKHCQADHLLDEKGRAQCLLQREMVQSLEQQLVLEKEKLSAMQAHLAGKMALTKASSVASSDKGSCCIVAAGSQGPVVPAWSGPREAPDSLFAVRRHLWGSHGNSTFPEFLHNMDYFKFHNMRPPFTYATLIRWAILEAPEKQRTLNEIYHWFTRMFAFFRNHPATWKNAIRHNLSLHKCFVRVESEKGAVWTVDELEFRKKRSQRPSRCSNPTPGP
Protocol: FIG. 14C depicts 10 cm plate HEK293T cells (˜8.8 million) were transfected with 2 μg AVI-TEV-FLAG-FOXP3 for about 48 hr. The cells were harvested into 1.6 ml room temperature 1×DPBS buffer (with no calcium and magnesium). The cells were aliquoted into 300 μl per sample and each sample was added SPB-AAD 10 μM (A10) or 100 μM (A100) or SPB-PEG4-AAD 100 μM (p100). The samples were incubated at 37° C. for 30 min in dark with rotation. The samples were transferred to the middle wells of a 24-well plate (Corning #3527). With 300 μl, the liquid is about 1.5 mm high in a 24-well plate well. The samples on the 24-well plate were then UV illuminated (LED Chip: 21.4 mm×21.4 mm, 365-370 nm, 30 Watt, sample distance (the bottom of the well plate to the lamp plane) is 4 cm, exposure time 2-5 min at 4 degree C.). The BFPX-treated cells were recovered from the 24-well plate and washed using 1×DPBS, centrifuged at 500 g for 5 min to pellet the cells and remove the DPBS buffer. 0.5 million of the BFPX-treated cells was added 20 μl 1×RIPA buffer, shake on ice for 15 min to lyse the cells. The lysis mixture was then added 3 μl 10× MNase, 0.25 μl RnaseA, 12.5 Unit Mnase, and ddw to 30 μl, incubated at 37° C. for 15 min. The lysis mixture was then added 6 μl SDS loading dye (2% SDS), boil 10 min at 95° C. Run at 200V for 40 minutes on 4%-15% SDS-PAGE gel and analyzed by western blot (Transfer at 18V (30 mA) overnight, block in 2% BSA in PBS for 45 min, Primary antibody: 1:2000 anti-FLAG; room temperature, 2 hr; Secondary antibody: anti mouse light chain kappa 1: 100,000; Femto Signal ECL).
Finally, we tested the capture of transcription factors bound to genomic DNA inside cells. HEK293T cells transfected with FLAG-tagged FOXP3 were treated with various combination of UV illumination and probe (SPB-AAD: A; and P: SPB-PEG4-AAD). The cells were lysed in 1×RIPA buffer followed by RNase and MNase treatment. The whole cell lysate were then added SDS loading dye, heated at 95 degree C. and run on a 4-15% SDS PAGE gel and analyzed by western blot using an anti-FLAG antibody.

Hela cells = test: Cell and nuclear permeability by click labelling with Alexa Fluor 647 picolyl azide, fluorescence imaging; format: cell-based; settings: for dependence of immobilized fluorescent signal on probe concentration: 10 μM vs 100 μM under UV illumination, FIG. 14B; for immobilization of Alexa Fluor 647 picolyl azide in cells (cell and nuclear permeability): probe 10 μM or 100 μM, 30 min, UV 365 nm 5 min
Description: FIG. 11A-FIG. 11F depicts permeability and subcellular distribution of the BFPX probe SPB-AAD in Hela cell. Top panel (FIG. 11A-FIG. 11C): buffer control experiments without adding SPB-AAD, (FIG. 11A) bright field; (FIG. 11B) fluorescence imaging of Alexa Fluor; (FIG. 11C) DAPI stain of the nuclei; Bottom panel: treatment with […], (FIG. 11D) bright field; (FIG. 11E) fluorescence imaging of Alexa Fluor; (FIG. 11F) DAPI stain of the nuclei.
FIG. 14A depicts characterization and testing of BFPX crosslinking inside cells. Hela cells were incubated with SPB-AAD or SPB-PEG4-AAD (10 μM or 100 μM) in the dark for 30 min to allow the DNA binding and intercalation by the psoralen moiety of the BFPX probes. After washing off the excessive BFPX probe, illuminate UV 365 nm for 5 min. An Alexa Fluor 647 picolyl azide molecule (from Click-iT™ Plus Alexa Fluor™ 647 Picolyl Azide Toolkit) was used to react with the alkyne group on SPB-AAD or SPB-PEG4-AAD via click reaction. After the click chemistry labeling, the unreacted fluorescent molecules were removed by washing. The nuclei were analyzed using fluorescence imaging. When no BFPX probes were added (columns 1 and 2) or adding probes without UV treatment (columns 3 and 6), little or no fluorescence signal was retained in the cells.
We next tested the cell and nuclear permeability of the BFPX probes using azide-containing fluorescent molecules through click reaction with the terminal alkyne in SPB-AAD and SPB-PEG4-AAD. Briefly, Hela cells were incubated with SPB-AAD or SPB-PEG4-AAD (10 μM or 100 μM) in the dark for 30 min to allow the DNA binding and intercalation by the psoralen moiety of the BFPX probes. After washing off the excess BFPX probes followed by illumination of UV 365 nm for 5 min, Alexa Fluor 647 picolyl azide was coupled to the alkyne group on SPB-AAD or SPB-PEG4-AAD via click reaction. After the click chemistry labeling, the unreacted fluorescent molecules were removed by washing. The nuclei were then be analyzed using fluorescence imaging (FIG. 14A). When no BFPX probes were added (columns 1 and 2) or adding probes without UV treatment (columns 3 and 6), little or no fluorescence signal was retained in the cells.
We also analyzed (i) cell permeability and subcellular distribution of the BFPX probes. We validated the cell and nuclear permeability of the BFPX probes and monitored their sub-cellular distribution using azide-containing fluorescent label through click reaction with the alkyne group (as in SPB-AAD and SPB-PEG3-AAD). Briefly, Hela cells were incubated with SPB-AAD (25 μM) in the dark for 30 min to allow the DNA binding and intercalation by the psoralen moiety of the BFPX probe. […] The nuclei were then analyzed using fluorescence imaging (FIG. 11). […]

Row | SMILES | dependence of crosslinked FOXP3 complex formation on probe concentration (FOXP3 in HEK293T cells; 10 μM (lane 4) vs 100 μM (lane 6)) | crosslinked FOXP3 complexes in probe and UV treated cells (FOXP3 in HEK293T cells) | dependence of immobilized fluorescent signal on probe concentration (Hela cells) | immobilization of Alexa Fluor 647 picolyl azide in cells (cell and nuclear permeability) (Hela cells)
1 | C#CCCC1(CCNC(=O)CCCOc2c3occc3cc3ccc(=O)oc23)N=N1 [SPB-AAD, N-(2-(3-(but-3-yn-1-yl)-3H-diazirin-3-yl)ethyl)-4-((7-oxo-7H-furo[3,2-g]chromen-9-yl)oxy)butanamide] | dosage dependent on probe concentration | higher molecular weight species containing FOXP3 were observed | dosage dependent | could be immobilized in the cells via click reaction
2 | C#CCCC1(CCNC(=O)CCOCCOCCOCCOCCNC(=O)CCCOc2c3occc3cc3ccc(=O)oc23)N=N1 [SPB-PEG4-AAD, N-(2-(3-(but-3-yn-1-yl)-3H-diazirin-3-yl)ethyl)-1-(4-((7-oxo-7H-furo[3,2-g]chromen-9-yl)oxy)butanamido)-3,6,9,12-tetraoxapentadecan-15-amide] |  | higher molecular weight species containing FOXP3 were observed | dosage dependent | could be immobilized in the cells via click reaction
